Patent US10588910B2, “Pharmaceutical composition comprising epidithiodioxopiperazine compound or derivative thereof, or pharmaceutically acceptable salt thereof, for preventing or treating pulmonary hypertension” (priority 2016, dated 2020)
Values joined by “and” are separate entries in the source; they are usually repeats but may differ in a detail not shown here. Equal values may be shown once.

Test system: rat models in which pulmonary arterial hypertension is induced by monocrotaline (MCT)
Assay: Monocrotaline-induced pulmonary arterial hypertension rat model: heart mass, RV/(LV+septum) ratio, pulmonary arterial wall thickness (H&E)
Assay type: in vivo, Male SD rats
Details: for hypertrophy of the right ventricle and pulmonary artery intimal thickening: animals with pulmonary arterial hypertension induced by monocrotaline; for hypertrophy of the right ventricle and pulmonary artery intimal thickening / therapeutic effect on pulmonary arterial hypertension: summary statement; for Total mass (heart) / LV + Septum (mass), Average / RV (right ventricle mass), Average / RV/LV + Septum, Average / Total mass (heart), Average / LV + Septum (mass) / RV (right ventricle mass) / RV/LV + Septum: 3 weeks; for Total mass (heart) / LV + Septum (mass) / RV (right ventricle mass) / RV/LV + Septum: individual rats; for LV + Septum (mass), Average / RV (right ventricle mass), Average / RV/LV + Septum, Average / Total mass (heart), Average: group average
Description: Male SD rats weighing approximately 210 g were used as animal models. In order to induce pulmonary arterial hypertension, a single intraperitoneal injection of monocrotaline (MCT) at a dose of 60 mg/kg was carried out. Accordingly, the rat models in which pulmonary arterial hypertension is induced were maintained for 3 weeks while test drugs were administered or not administered, and then the rat models were sacrificed. Thereafter, the hearts were excised and analyzed.
Chaetocin (the compound of Formula 2), which is a representative epidithiodioxopiperazine compound, was administered as a test drug to the pulmonary arterial hypertension animal models prepared according to Preparation Example 1 above at each dose of 6 μg, 12 μg, and 30 μg every 3 days. Normal rats in which MCT is not administered were used as the control group; and rats in which pulmonary arterial hypertension is induced by administering only MCT were used as the MCT group. The control group and each experimental group consisted of 3 to 4 rats.
The hearts were excised as in Preparation Example 1, and the excised hearts were measured for their total mass. Thereafter, the right ventricle (RV) was separated and the masses of each of the right ventricle, left ventricle, and cardiac septum (LV+septum) were separately measured to calculate the ratio. The results of the measurement of each experimental animal, the normal rats (control group), the MCT group, and the experimental groups (chaetocin groups; MCT+(dose μg)) in which chaetocin is administered at each dose of 30 μg, 12 μg, and 6 μg are shown in order in Tables 1 to 5.
Further, the sizes of the excised entire hearts and separated right ventricles were visually observed (FIG. 1), and the thicknesses of the pulmonary arterial walls were measured by H&E staining (FIGS. 2 to 11). In addition, in order to visualize the difference in the heart and pulmonary artery according to the dose-dependent chaetocin administration after the pulmonary arterial hypertension induction in the pulmonary arterial hypertension model, the average values of the heart mass, the ratio of the right ventricle to the left ventricle, and the thickness of the pulmonary artery wall, which are calculated from the hearts excised from each animal model, are shown in FIGS. 12 to 14, respectively. […]

[1] = MCT rats, chaetocin 6 μg every 3 days
[2] = MCT rats, chaetocin 12 μg every 3 days
[3] = MCT rats, chaetocin 30 μg every 3 days

CN1C(=O)C2SSC1C(=O)N2C [5,7-Dimethyl-2,3-dithia-5,7-diazabicyclo[2.2.2]octane-6,8-dione]
hypertrophy of the right ventricle and pulmonary artery intimal thickening: reduced to a level similar to normal | therapeutic effect on pulmonary arterial hypertension: excellent therapeutic effect

CN1C(=O)C23CC4(C56CC78SSC(CO)(C(=O)N7C5Nc5ccccc56)N(C)C8=O)c5ccccc5NC4N2C(=O)C1(CO)SS3 (stereo not shown) [chaetocin]
Total mass (heart) (MCT 60 mg/kg i.p. rats, chaetocin 30 μg every 3 days): 1185 mg and 865 mg and 1135 mg and 1258 mg | LV + Septum (mass), Average [1]: 718.3 mg | RV (right ventricle mass), Average [1]: 190.0 mg | RV/LV + Septum, Average [1]: 0.26 | Total mass (heart), Average [1]: 908.3 mg | LV + Septum (mass) [1]: 732 mg and 681 mg and 742 mg | RV (right ventricle mass) [1]: 190 mg and 175 mg and 205 mg | RV/LV + Septum [1]: 0.26 (2×) and 0.28 | Total mass (heart) [1]: 922 mg and 856 mg and 947 mg | LV + Septum (mass), Average [2]: 935.7 mg | RV (right ventricle mass), Average [2]: 259.0 mg | RV/LV + Septum, Average [2]: 0.28 | Total mass (heart), Average [2]: 1194.7 mg | LV + Septum (mass) [2]: 913 mg and 968 mg and 926 mg | RV (right ventricle mass) [2]: 261 mg and 295 mg and 221 mg | RV/LV + Septum [2]: 0.29 and 0.30 and 0.24 | Total mass (heart) [2]: 1174 mg and 1263 mg and 1147 mg | LV + Septum (mass), Average [3]: 870.8 mg | RV (right ventricle mass), Average [3]: 240.0 mg | RV/LV + Septum, Average [3]: 0.3 | Total mass (heart), Average [3]: 1110.8 mg | LV + Septum (mass) [3]: 921 mg and 689 mg and 874 mg and 999 mg | RV (right ventricle mass) [3]: 264 mg and 176 mg and 261 mg and 259 mg | RV/LV + Septum [3]: 0.29 and 0.26 (2×) and 0.30 | hypertrophy of the right ventricle and pulmonary artery intimal thickening: reduced to a level similar to normal | therapeutic effect on pulmonary arterial hypertension: excellent therapeutic effect
